In patent publication US11504362B2, “Liquid dosage forms to treat cancer” (Exelixis, Inc., priority 2017, dated 2022):
Where “and” joins values, the source holds several entries; their conditions need not be identical. Equal values may be shown once.

Key:
[1] = system: tumor models (human medullary thyroid cancer, human breast cancer, and rat glioma); settings: cited from earlier work
[2] = clinical; settings: human, in vivo
Description: Samples for 2 subjects were used for the investigation study. Therefore, only 6 subjects' PK profiles were determined using a radio-quantitation method.

[3] = Mass balance: excretion and recovery of 14C total radioactivity in urine and feces; format: in vivo, human
Source text: Methodology: This was an open-label, single-dose, single-center, mass balance, Phase 1 study in healthy male volunteers. There were two study periods: a Screening Period, during which subjects underwent assessments to determine their eligibility for the study, and an On-study Period, which started on Day-1 (‘check-in’ day) when the subject was admitted to the Celerion clinic. […] However, subjects who were discharged from the clinic before Day 28 were required to return to the clinic for all remaining scheduled pharmacokinetic blood sampling and the Day 28 safety assessments. Subjects not meeting radioactivity release criteria by Day 28 could be asked to remain confined in the clinic or continue collection of urine and feces at home (returning samples to the clinic daily) for up to an additional 7 days (through to Day 35). Due to the fact that by Day 35 subjects had still not met release criteria, subjects were given the option of withdrawing from the study or completing the additional 14-day collection period (either in the clinic or as a daily visitor) with urine and feces collections and daily adverse event (AE) inquiries. All urine and fecal collections for all subjects stopped following the conclusion of the Day 49 scheduled events regardless of percentage of total radioactive dose recovered.
A single dose oral solution was administered at Hour 0 on Day 1 by the clinic staff. The dose was given via the scintillation vial. Following dosing, the scintillation vial was rinsed 3 times with room temperature distilled water, and the rinsate was administered to the subject. Residual radioactivity was determined for each dosing vial. The total volume of liquid administered including radiolabelled study drug, rinses, and water given for dosing (in addition to the rinses) was the same for each subject.
Mass balance was calculated as the percent of total administered radioactivity recovered in urine and feces. For the purpose of calculating mass balance, the amount of administered radioactivity was defined as the total radioactivity in the dosing solution minus any radioactivity lost due to emesis (if any occurred), adsorption to the dosing vial, etc.
Subjects were asked to empty their bladders within approximately 60 minutes prior to dosing for the pre-dose sample. Samples were collected during the 0 to 8 hours and 8 to 24 hours post-dose intervals, and then continuing in 24-hour intervals through Day 49. For subjects who met early release criteria, sampling could cease upon discharge from the clinic. […] One subject was released from the clinic following the 864 hour interval (Day 37) collection and no longer provided excreta samples.
Subjects were asked to bring a pre-dose stool sample with them at check-in (produced within 24 hours of check-in). Stools produced between subject check-in and dosing were collected for the pre-dose sample as well, and the sample produced nearest to dosing was used as the pre-dose sample. Post-dose stools were collected in 24-hour intervals through the morning of Day 49. For subjects who met early release criteria, sampling could cease upon discharge from the clinic. […] One subject was released from the clinic following the 864 hour interval (Day 37) collection and no longer provided excreta samples.
For each subject, multiple fecal specimens from each 24-hour interval were combined into a pre-weighed wide mouth polypropylene/polyethylene container and appropriately labeled. For each interval, the fecal sample was weighed to determine the final fecal weight. Each sample was homogenized into a slurry (approximately 20% suspension in water) from which the necessary aliquots were taken.
Mass balance was calculated as the percent of total administered radioactivity recovered in urine and feces. […]

[4] = Plasma pharmacokinetics of XL184 and metabolites by LC/MS/MS method; settings: human, in vivo
Description: (§1) Pharmacokinetics: Serial blood, urine, and feces were collected at specified times following dosing.
(§2) All samples collected for radioactivity analysis were analyzed for total radioactivity.
Detailed reports of the bioanalytical methodologies and results accompany the clinical study report.
The other minor metabolite in plasma, p-Fluoroaniline, was analyzed by Exelixis using a validated LC/MS/MS method.
PK variables were computed using WinNonlin Professional, version 5.2.

[5] = male, human, in vivo
Description: as §1, §2
Blood samples (4 mL) for whole blood analysis of total radioactivity were collected within 15 minutes pre-dose and at 1, 2, 4, 8, 14, 24, and 72 hours post-dose. Prior to study initiation, the Celerion Scintillation Laboratory supplied to the Celerion clinic complete written instructions for collection, handling, and processing of samples. Samples collected were used to determine the percentage of radioactivity associated with erythrocytes in whole blood over time (calculated only for time points that whole blood was collected).
Individual dosing containers (including the dosage form) were analyzed pre-dose and post-dose for radioactivity, with the (post-dose−pre-dose) difference being the administered dose. Whole blood, plasma, urine, feces, and emesis (if applicable) were analyzed for radioactivity content by liquid scintillation counting procedures. Whole blood and fecal samples were dried and oxidized prior to counting. Detailed reports of scintillation counting method and results for total radioactivity accompany the clinical study report. […]
The Cmax and time to peak concentration (tmax) were directly determined from the observed blood/plasma concentrations data. […]

[6] = single 175 mg oral dose, through 48 days, mean ± SD (% CV), n = 8
[7] = po, 175 mg, Plasma concentration of XL184 by LC/MS/MS, single 175 mg oral XL184 L-malate, healthy male subjects, […], individual subject

COc1cc2nccc(Oc3ccc(NC(=O)C4(C(=O)Nc5ccc(F)cc5)CC4)cc3)c2cc1OC [XL184, N-(4-{[6,7-bis(methyloxy)quinolin-4-yl]oxy}phenyl)-N′-(4-fluorophenyl)cyclopropane-1,1-dicarboxamide]
Tumor regression ([1]; human medullary thyroid cancer, human breast cancer, and rat glioma models): marked tumor regression | Tumor growth inhibition ([1]; multiple tumor models): significant tumor growth inhibition | Immunohistochemistry findings ([1]; within 24 hours after administration): rapid effects on the endothelium, vascular breakdown, and tumor cell death | AUC0-24 [2]: 10700 ± 3170 h · ngEq/mL | AUC0-72 [2]: 23800 ± 9340 h · ngEq/mL | AUC0-inf [2]: 40300 ± 12300 h · ngEq/mL | AUC0-t [2]: 38100 ± 12800 h · ngEq/mL | concentration at 0.5 h ([2]; po, 175 mg, Plasma concentration, 0.50 h, individual subject, single 175 mg oral [14C]-XL184 (100 μCi), healthy male subjects, radio-quantitative method): 283 ng/mL | concentration at 5 h ([2]; po, 175 mg, Plasma concentration, 5.00 h, individual subject, single 175 mg oral [14C]-XL184 (100 μCi), healthy male subjects, radio-quantitative method): 512 ng/mL | concentration at 336 h ([2]; po, 175 mg, Plasma concentration, 336.00 h, individual subject, single 175 mg oral [14C]-XL184 (100 μCi), healthy male subjects, radio-quantitative method): 10.3 ng/mL | concentration at 72 h ([2]; po, 175 mg, Plasma concentration, individual subject, single 175 mg oral [14C]-XL184 (100 μCi), healthy male subjects, radio-quantitative method): 101 ng/mL | ke1 ([2]; male): 0.0112 ± 0.0053 h⁻¹ | Tmax ([2]; male, Tmax): ~1.99 h | concentration at 72 h ([2]; male, po, 175 mg, Plasma concentration, Mean, N=6, single 175 mg oral [14C]-XL184 (100 μCi), healthy male subjects, radio-quantitative method): 159 ng/mL | concentration at 72 h ([2]; male, po, 175 mg, Plasma concentration, Median, N=6, single 175 mg oral [14C]-XL184 (100 μCi), healthy male subjects, radio-quantitative method): 162 ng/mL | Urine cumulative excretion of 14C total radioactivity ([3]; Day 1 (24 hrs), individual subjects): 2.32% and 4.30% and 3.22% and 7.81% and 3.81% and 3.89% and 4.78% and 3.38% | Urine cumulative excretion of 14C total radioactivity ([3]; Day 1 (24 hrs), mean): 4.19% | Urine cumulative excretion of 14C total radioactivity ([3]; Day 2 (48 hrs), individual subjects): 4.70% and 8.75% and 6.39% and 14.86% and 7.68% and 8.34% and 9.68% and 7.07% | Urine cumulative excretion of 14C total radioactivity ([3]; Day 2 (48 hrs), mean): 8.43% | Urine cumulative excretion of 14C total radioactivity ([3]; Day 3 (72 hrs), individual subjects): 7.26% and 13.09% and 9.22% and 20.34% and 11.00% and 12.23% and 13.67% and 9.75% | Urine cumulative excretion of 14C total radioactivity ([3]; Day 3 (72 hrs), mean): 12.07% | Urine cumulative excretion of 14C total radioactivity ([3]; Day 4 (96 hrs), individual subjects): 9.65% and 16.19% and 11.53% and 24.39% and 13.47% and 15.11% and 16.57% and 12.11% | Urine cumulative excretion of 14C total radioactivity ([3]; Day 4 (96 hrs), mean): 14.88% | Urine cumulative excretion of 14C total radioactivity ([3]; Day 5 (120 hrs), individual subjects): 11.74% and 18.60% and 13.44% and 27.04% and 15.59% and 17.46% and 18.91% and 13.86% | Urine cumulative excretion of 14C total radioactivity ([3]; Day 5 (120 hrs), mean): 17.08% | Urine cumulative excretion of 14C total radioactivity ([3]; Day 6 ([…]), mean): 18.72% | Urine cumulative excretion of 14C total radioactivity ([3]; Day 7 ([…]), mean): 20.04% | Urine cumulative excretion of 14C total radioactivity ([3]; Day 8 (192 hrs), individual subjects): 16.27% and 23.34% and 16.60% and 31.32% and 19.36% and 21.56% and 23.11% and 18.17% | Urine cumulative excretion of 14C total radioactivity ([3]; Day 8 (192 hrs), mean): 21.22% | Urine cumulative excretion of 14C total radioactivity ([3]; Day 9 (216 hrs), individual subjects): 17.35% and 24.24% and 17.22% and 32.02% and 20.33% and 22.44% and 23.99% and 19.02% | Urine cumulative excretion of 14C total radioactivity ([3]; Day 9 (216 hrs), mean): 22.08% | Urine cumulative excretion of 14C total radioactivity ([3]; Day 10 (240 hrs), individual subjects): 18.26% and 25.17% and 17.67% and 32.59% and 21.12% and 23.24% and 24.71% and 19.68% | Urine cumulative excretion of 14C total radioactivity ([3]; Day 10 (240 hrs), mean): 22.81% | Urine cumulative excretion of 14C total radioactivity ([3]; Day 11 ([…]), mean): 23.42% | Cumulative recovery of total radioactivity in feces [3, 6]: 53.79% of Dose | Cumulative recovery of total radioactivity in urine [3, 6]: 27.29% of Dose | Cumulative recovery of total radioactivity, total (urine and feces) ([3]; single 175 mg oral dose, within 48 days, mean ± SD (% CV), n = 8): 81.09% of Dose | concentration at 8 h ([4]; po, 175 mg, Plasma Concentrations of XL184 by LC/MS/MS Method, single 175 mg oral dose, Min (N=8)): 267 ng/mL | concentration at 8 h ([4]; po, 175 mg, Plasma Concentrations of XL184 by LC/MS/MS Method, single 175 mg oral dose, individual subjects): 532 ng/mL | concentration at 14 h ([4]; po, 175 mg, Plasma Concentrations of XL184 by LC/MS/MS Method, 14.00 h, single 175 mg oral dose, individual subjects): 488 ng/mL | concentration at 48 h [4, 7]: 352 ng/mL | concentration at 120 h [4, 7]: 156 ng/mL | AUC0-24 ([4]; male): 14300 ± 2600 (18) h · ng/mL | AUC0-72 ([4]; male): 35000 ± 6770 (19) h · ng/mL | AUC0-inf ([4]; male): 68000 ± 6910 (10) h · ng/mL | AUC0-t ([4]; male): 67200 ± 6880 (10) h · ng/mL | Tmax ([4]; male): 1.49 (1.00, 3.00) h | Tmax ([4]; male, Tmax): ~1.49 h | AUC0-t ([4]; male, po, 175 mg, AUC0-24): 17600 ng·h/mL | AUC0-t ([4]; male, po, 175 mg, AUC0-72): 46800 ng·h/mL | AUC0-inf ([4]; male, po, 175 mg, AUC0-inf): 73100 ng·h/mL | AUC0-t ([4]; male, po, 175 mg, AUC0-t): 72900 ng·h/mL | Cmax ([4]; male, po, 175 mg, Cmax): 1250 ng/mL | half-life ([4]; male, po, 175 mg, t1/2): 69 h | kel of total radioactivity [5]: 0.00308 h⁻¹
